Measured values reported in ChEMBL document CHEMBL4308841, “Synthesis, in vitro antiproliferative activity, and kinase inhibitory effects of pyrazole-containing diarylureas and diarylamides” (Eur J Med Chem, 2018).

How the values were obtained:
NCI/ADR-RES = experiment: Growth inhibition of human NCI/ADR-RES cells assessed as cell growth at 1 uM incubated for 48 hrs by sulforhodamine B assay relative to control; type: functional; details: read-out: Activity
T47D = experiment: Growth inhibition of human T47D cells assessed as cell growth at 100 uM incubated for 48 hrs by sulforhodamine B assay relative to control; type: functional; details: read-out: Activity
U-251 = experiment: Growth inhibition of human U251 cells assessed as cell growth at 100 uM incubated for 48 hrs by sulforhodamine B assay relative to control; type: functional; details: U-251, 48 h, read-out: Activity
RXF 393 = experiment: Growth inhibition of human RXF393 cells assessed as cell growth at 100 uM incubated for 48 hrs by sulforhodamine B assay relative to control; type: functional; details: RXF 393, 48 h, read-out: Activity
PC-3 = experiment: Growth inhibition of human PC3 cells assessed as cell growth at 0.1 uM incubated for 48 hrs by sulforhodamine B assay relative to control; type: functional; details: PC-3, 48 h, read-out: Activity
NCI-H322M = experiment: Growth inhibition of human NCI-H322M cells assessed as cell growth at 100 uM incubated for 48 hrs by sulforhodamine B assay relative to control; type: functional; details: read-out: Activity
A549 = experiment: Growth inhibition of human A549/ATCC cells assessed as cell growth at 0.1 uM incubated for 48 hrs by sulforhodamine B assay relative to control; type: functional; details: A549, 48 h, read-out: Activity
MDA-MB-435 = experiment: Growth inhibition of human MDA-MB-435 cells assessed as cell growth at 0.1 uM incubated for 48 hrs by sulforhodamine B assay relative to control; type: functional; details: MDA-MB-435, 48 h, read-out: Activity
HOP-62 = experiment: Growth inhibition of human HOP62 cells assessed as cell growth at 100 uM incubated for 48 hrs by sulforhodamine B assay relative to control; type: functional; details: HOP-62, 48 h, read-out: Activity
HCT-15 = experiment: Growth inhibition of human HCT15 cells assessed as cell growth at 1 uM incubated for 48 hrs by sulforhodamine B assay relative to control; type: functional; details: HCT-15, 48 h, read-out: Activity
SF-268 = experiment: Growth inhibition of human SF268 cells assessed as cell growth at 1 uM incubated for 48 hrs by sulforhodamine B assay relative to control; type: functional; details: SF-268, 48 h, read-out: Activity
NCI-H460 = experiment: Growth inhibition of human NCI-H460 cells assessed as cell growth at 100 uM incubated for 48 hrs by sulforhodamine B assay relative to control; type: functional; details: NCI-H460, 48 h, read-out: Activity
MDA-MB-231 = experiment: Growth inhibition of human MDA-MB-231 cells assessed as cell growth at 0.01 uM incubated for 48 hrs by sulforhodamine B assay relative to control; type: functional; details: MDA-MB-231, 48 h, read-out: Activity
CCRF-CEM [1] = experiment: Growth inhibition of human CCRF-CEM cells incubated for 48 hrs by sulforhodamine B assay; type: functional, cell-based
M14 = experiment: Growth inhibition of human M14 cells assessed as cell growth at 100 uM incubated for 48 hrs by sulforhodamine B assay relative to control; type: functional; details: M14, 48 h, read-out: Activity
CCRF-CEM [2] = experiment: Growth inhibition of human CCRF-CEM cells assessed as cell growth at 0.1 uM incubated for 48 hrs by sulforhodamine B assay relative to control; type: functional; details: read-out: Activity
Malme-3M [3] = experiment: Growth inhibition of human MALME-3M cells incubated for 48 hrs by sulforhodamine B assay; type: functional, cell-based
NCI-H226 = experiment: Growth inhibition of human NCI-H226 cells incubated for 48 hrs by sulforhodamine B assay; type: functional, cell-based; details: NCI-H226, 48 h
RPMI-8226 = experiment: Growth inhibition of human RPMI8226 cells assessed as cell growth at 1 uM incubated for 48 hrs by sulforhodamine B assay relative to control; type: functional; details: RPMI-8226, 48 h, read-out: Activity
COLO 205 = experiment: Growth inhibition of human COLO205 cells assessed as cell growth at 0.1 uM incubated for 48 hrs by sulforhodamine B assay relative to control; type: functional; details: COLO 205, 48 h, read-out: Activity
MDA-MB-468 [4] = experiment: Growth inhibition of human MDA-MB-468 cells incubated for 48 hrs by sulforhodamine B assay; type: functional, cell-based; details: MDA-MB-468, 48 h
SK-MEL-28 = experiment: Growth inhibition of human SK-MEL-28 cells assessed as cell growth at 0.1 uM incubated for 48 hrs by sulforhodamine B assay relative to control; type: functional; details: SK-MEL-28, 48 h, read-out: Activity
SW-620 = experiment: Growth inhibition of human SW620 cells incubated for 48 hrs by sulforhodamine B assay; type: functional, cell-based; details: SW-620, 48 h
SK-MEL-5 = experiment: Growth inhibition of human SK-MEL-5 cells assessed as cell growth at 0.1 uM incubated for 48 hrs by sulforhodamine B assay relative to control; type: functional; details: SK-MEL-5, 48 h, read-out: Activity
NCI-H522 = experiment: Growth inhibition of human NCI-H522 cells assessed as cell growth at 0.1 uM incubated for 48 hrs by sulforhodamine B assay relative to control; type: functional; details: NCI-H522, 48 h, read-out: Activity
MDA-MB-468 [5] = experiment: Growth inhibition of human MDA-MB-468 cells assessed as cell growth at 1 uM incubated for 48 hrs by sulforhodamine B assay relative to control; type: functional; details: MDA-MB-468, 48 h, read-out: Activity
Malme-3M [6] = experiment: Growth inhibition of human MALME-3M cells assessed as cell growth at 0.1 uM incubated for 48 hrs by sulforhodamine B assay relative to control; type: functional; details: read-out: Activity
CCRF-CEM [7] = experiment: Growth inhibition of human CCRF-CEM cells assessed as cell growth at 1 uM incubated for 48 hrs by sulforhodamine B assay relative to control; type: functional; details: read-out: Activity
UACC-257 = experiment: Growth inhibition of human UACC257 cells assessed as cell growth at 0.1 uM incubated for 48 hrs by sulforhodamine B assay relative to control; type: functional; details: UACC-257, 48 h, read-out: Activity
SF-539 = experiment: Growth inhibition of human SF539 cells assessed as cell growth at 0.01 uM incubated for 48 hrs by sulforhodamine B assay relative to control; type: functional; details: SF-539, 48 h, read-out: Activity
[8] = read-out: LC50 (the source's name)
[9] = read-out: pLC50 (the source's name) (converted)

COc1cc(Cl)cc(-c2nn(-c3cccc(NC(=O)c4ccc(N5CCOCC5)c(C(F)(F)F)c4)c3)cc2-c2ccncc2)c1
growth at 1 µM (NCI/ADR-RES): 92%
growth at 100 µM (T47D): 33%
growth at 100 µM (U-251): 3%
growth at 100 µM (RXF 393): -10%
growth at 0.1 µM (PC-3): 95%
growth at 100 µM (NCI-H322M): 48%
growth at 0.1 µM (A549): 102%
growth at 0.1 µM (MDA-MB-435): 98%
growth at 100 µM (HOP-62): 45%
growth at 1 µM (HCT-15): 52%
growth at 1 µM (SF-268): 93%
growth at 100 µM (NCI-H460): 5%
growth at 0.01 µM (MDA-MB-231): 99%
GI50 (CCRF-CEM [1]; read-out: GI50): 3.58 µM
CC50 (CCRF-CEM [1]; [8]): > 100 µM
TGI (CCRF-CEM [1]; read-out: TGI): > 100 µM
GI50 (CCRF-CEM [1]; read-out: pGI50 (converted)): 3.89 µM
CC50 (CCRF-CEM [1]; [9]): > 100 µM
TGI (CCRF-CEM [1]; read-out: pTGI (converted)): > 100 µM
growth at 100 µM (M14): 5%
growth at 0.1 µM (CCRF-CEM [2]): 101%
GI50 (Malme-3M [3]; read-out: GI50): 2.53 µM
CC50 (Malme-3M [3]; [8]): > 100 µM
TGI (Malme-3M [3]; read-out: TGI): > 100 µM
GI50 (Malme-3M [3]; read-out: pGI50 (converted)): 28.2 µM
CC50 (Malme-3M [3]; [9]): > 100 µM
TGI (Malme-3M [3]; read-out: pTGI (converted)): > 100 µM
GI50 (NCI-H226; read-out: GI50): 9.34 µM
LC50 (NCI-H226; read-out: LC50): > 100 µM
TGI (NCI-H226; read-out: TGI): > 100 µM
GI50 (NCI-H226; read-out: pGI50 (converted)): 93.3 µM
LC50 (NCI-H226; read-out: pLC50 (converted)): > 100 µM
TGI (NCI-H226; read-out: pTGI (converted)): > 100 µM
growth at 1 µM (RPMI-8226): 59%
growth at 0.1 µM (COLO 205): 100%
IC50 (MDA-MB-468 [4]): 12.1 µM
GI50 (MDA-MB-468 [4]; read-out: GI50): 1.21 µM
CC50 (MDA-MB-468 [4]; [8]): > 100 µM
TGI (MDA-MB-468 [4]; read-out: TGI): > 100 µM
GI50 (MDA-MB-468 [4]; read-out: pGI50 (converted)): 12 µM
CC50 (MDA-MB-468 [4]; [9]): > 100 µM
TGI (MDA-MB-468 [4]; read-out: pTGI (converted)): > 100 µM
growth at 0.1 µM (SK-MEL-28): 103%
GI50 (SW-620; read-out: GI50): 2.96 µM
LC50 (SW-620; read-out: LC50): > 100 µM
TGI (SW-620; read-out: TGI): > 100 µM
GI50 (SW-620; read-out: pGI50 (converted)): 29.5 µM
LC50 (SW-620; read-out: pLC50 (converted)): > 100 µM
TGI (SW-620; read-out: pTGI (converted)): > 100 µM
growth at 0.1 µM (SK-MEL-5): 99%
growth at 0.1 µM (NCI-H522): 81%
growth at 1 µM (MDA-MB-468 [5]): 56%
growth at 0.1 µM (Malme-3M [6]): 85%
growth at 1 µM (CCRF-CEM [7]): 56%
growth at 0.1 µM (UACC-257): 97%
growth at 0.01 µM (SF-539): 99%
